Results: US20210275543A1, “METHODS FOR THE TREATMENT OF MITOCHONDRIAL GENETIC DISEASES” (NSERM (INSTITUT NATIONAL DE LA SANTÉ ET DE LA RECHERCHE …, priority 2017, published 2021)

Tests used:
[1] = tested on: phosphorylated ribosomal protein S6 (mTORC1 signaling); assay: Analysis of S6 phosphorylation by western blotting in primary dermal fibroblasts; format: cell-based, human; conditions: for S6 phosphorylation (phosphorylated ribosomal protein S6 vs total rpS6, GAPDH): 48 hours of treatment, 5 μmol/L BYL719
Experimental: (§1) Punch skin biopsies were collected using standard methods.
(§2) To generate dermal fibroblast cultures, biopsies were minced and incubated at room temperature in 0.05% trypsin-EDTA (ThermoFisher 25300054) solution for 30 min with gentle shaking. Cells were collected by centrifuging at 700 g for 10 min, re-suspended in cell culture media containing 25% FBS, and plated onto 24 well plates to establish lines. Fibroblast cultures were grown and maintained in 1×MEM (Corning 10-010-CV) supplemented with 25% FBS and penicillin/streptomycin (Corning 30-001-CI) to a final concentration of 100 IU penicillin and 500 μg/mL streptomycin.
Cells at similar population doubling (PD-10+/−2) were plated 1:4 from confluent cultures and allowed to grow until ˜80% confluent. Media was replaced with media containing 5 μmol/L BYL719 (Chem Express) in DMSO or equal volume DMSO for 48 hours. Cultures were rinsed with 1×PBS, treated for 10 min with 0.05% Trypsin, collected by centrifugation at 4° C., and pellets were flash frozen on dry ice. Protein lysates were collected by directly adding 1×RIPA buffer (Pierce 89900) containing protease and phosphatase inhibitors (Pierce PI78441) to cell pellets, sonicating in 10 one-second bursts, on ice, with an XL-2000 QSonica at maximum output, and centrifuging to remove cell debris. Protein concentration was determined by BCA assay (Pierce PI23228), equal protein run on 4-12% bis-tris 26 well NuPage midigels (Fisher WG1403), and transferred to nitrocellulose blots (Fisher IB23001). Blots were blocked in LICOR Odyssey blocking buffer (LICOR 427-40100), probed with primary antibodies anti-pS6, anti-S6, and anti-GAPDH (Cell Signaling 4858P, 2217S, and 2118S, respectively) followed by secondary antibody IRDye800 donkey anti-rabbit (LICOR 925-32213) and imaged using LICOR Odyssey Clx scanning imager as previously described^9. Data quantified using NIH ImageJ^11.

Ndufs4−/− mice = assay: PIK3CA inhibition in Ndufs4 knockout mouse model of Leigh syndrome (survival); format: in vivo; conditions: 50 mg·kg-1 daily p.o.
Description: Leigh Syndrome is a severe mitochondrial disease that occurs in about 1:40,000 newborns and is associated with retarded growth, muscular deficits including myopathy and dyspnea, lactic acidosis, and a characteristic progressive necrotizing encephalopathy of the vestibular nuclei, cerebellum, and olfactory bulb (Budde et al., 2002). Ndufs4 encodes a subunit of Complex I of the mitochondrial electron transport chain; mutations in the NDUFS4 gene cause LS in humans (Budde et al., 2000), and the Ndufs4 knockout mouse is a murine model of LS (Kruse et al., 2008). Ndufs4−/− mice have decreased Complex I levels and activity in multiple tissues and show severe and progressive symptoms of mitochondrial disease that mirror human LS. LS results in death at an average of […] in humans, and Ndufs4 KO mice show a similar early-life mortality with an average lifespan of just 60 days. Heterozygous Ndufs4 knockout mice on a C57Bl/6NIA background were bred to produce homozygous KO animals. Animals were fed ad libitum and housed at a constant ambient temperature in a 12-hour light cycle. Animal procedures were approved by the “Services Vétérinaires de la Prefecture de Police de Paris” Departmental Director and by the ethical committee of the Paris Descartes University.
At the age of 21 days, Ndufs4−/− mice were treated with the PI3KCA inhibitor, BYL719 (MedChem Express; 50 mg·kg-1 in 0.5% carboxymethylcellulose (Sigma Aldrich), daily p.o.) (n=9) or vehicle (0.5% carboxymethylcellulose (Sigma Aldrich), daily p.o.) (n=8).

[2] = tested on: primary dermal fibroblasts from patients with mitochondrial disorders and controls; assay: Analysis of mitochondrial membrane potential and morphology (TMRE / 10-NAO staining, confocal microscopy and flow cytometry); format: cell-based, human
Experimental: as §1, §2
Cells at similar population doubling (PD-10+/−2) were plated 1:4 from confluent cultures onto coverglass chamberslides and allowed to grow until ˜80% confluent. Media was replaced and supplemented with […] BYL719 (Chem Express) in DMSO (Fisher BP321-1), or equal volume DMSO, for 48 hours. Cells were stained for 15 min in media with 100 nM tetramethylrhodamine ethyl ester (TMRE, Fisher BDB564696) and 5 μg/mL Hoechst 33342 (Biotium 89139-126) and imaged on a Leica SP5 confocal microscope. Samples were treated and imaged in one session using identical imaging parameters. Flow cytometry analysis was performed by staining cells with only TMRE or 10-N-nonyl acridine orange (10-NAO), dissociating with trypsin-EDTA containing dye for 10 min at room temperature, collecting cells by centrifugation, resuspension in cold PBS, and analysis on a BD Canto II flow cytometer using 488 nm excitation with 585/42 BP and 530/30 BP filters for TMRE and 10-NAO, respectively. A single gate was set to cells using forward and side scatter and all settings unchanged throughout data collection. 10,000 or more events were collected for every sample.

[3] = primary MELAS patient and control fibroblast lines, FIG. 1A

Compound | S6 phosphorylation (phosphorylated ribosomal protein S6 vs total rpS6, GAPDH) [1, 3] | animal survival (Ndufs4−/− mice; Ndufs4−/− mice treated from age 21 days, vs vehicle, FIG. 2) | appearance of treated animals (Ndufs4−/− mice; Ndufs4−/− mice, 120 days later) | time alive (Ndufs4−/− mice; Ndufs4−/− mice, all placebo-treated mice died within 80 days) | mitochondrial membrane potential (TMRE staining intensity) and morphology (fragmentation, depolarized mitochondria) ([2]; MELAS fibroblasts, 48 hours, confocal microscopy, FIG. 1C) | membrane potential (TMRE) by flow cytometry ([2]; MELAS fibroblasts, flow cytometry, data not shown) | mitochondrial membrane potential (TMRE staining intensity) and morphology ([2]; control cells, 48 hours, confocal microscopy, FIG. 1C) | pS6 levels ([1]; all cell lines (patients with mitochondrial disorders and controls), 48 hours, FIGS. 1A and 1B) | S6 phosphorylation (phosphorylated ribosomal protein S6 vs total rpS6, GAPDH) ([1]; other mitochondrial disorders and control fibroblast lines, FIG. 1B)
cyclosporin A | no significant impact | – | – | – | – | – | – | – | –
Cc1nc(NC(=O)N2CCC[C@H]2C(N)=O)sc1-c1ccnc(C(C)(C)C(F)(F)F)c1 [BYL719, Alpelisib] | inhibited S6 phosphorylation | dramatically improved animal survival | overtly normal appearance | ≥ 120 days | attenuated these phenotypes in all MELAS fibroblasts | rescue | no overt impact | reduced pS6 levels in all cell lines | inhibited S6 phosphorylation
